Source: ChEMBL document CHEMBL3232804, “Synthesis and evaluation of new diaryl ether and quinoline hybrids as potential antiplasmodial and antimicrobial agents” (Bioorg Med Chem Lett, 2014)
Values after ≈ are worked out from the molar mass of the structure shown.

Experiments:
Candida parapsilosis = assay: Antifungal activity against Candida parapsilosis ATCC […] after 72 to 96 hrs by standard broth microdilution method; type: functional; settings: Lodderomyces parapsilosis
Escherichia coli = assay: Antimicrobial activity against Escherichia coli ATCC 9637 after 24 hrs by standard broth microdilution method; type: functional; settings: ATCC 9637, 24 h
Plasmodium falciparum [1] = assay: Antiplasmodial activity against chloroquine-resistant Plasmodium falciparum K1 infected after 72 hrs by Malaria SYBR Green I-staining based fluorescence assay; type: functional, organism-based; settings: K1, 72 h
Plasmodium falciparum [2] = assay: Antiplasmodial activity against chloroquine-sensitive Plasmodium falciparum 3D7 infected after 72 hrs by Malaria SYBR Green I-staining based fluorescence assay; type: functional, organism-based; settings: 3D7, 72 h
Candida albicans = assay: Antifungal activity against Candida albicans clinical isolate after 24 to 48 hrs by standard broth microdilution method; type: functional
Pseudomonas aeruginosa = assay: Antimicrobial activity against Pseudomonas aeruginosa ATCC BAA-427 after 24 hrs by standard broth microdilution method; type: functional; settings: ATCC BAA-427, 24 h
Klebsiella pneumoniae = assay: Antimicrobial activity against Klebsiella pneumoniae ATCC 27736 after 24 hrs by standard broth microdilution method; type: functional; settings: ATCC 27736, 24 h
[3] = Selectivity index, ratio of IC50 for african green monkey Vero cells to IC50 for chloroquine-sensitive Plasmodium falciparum 3D7; type: toxicity, cell-based; settings: read-out: Ratio IC50
Cryptococcus neoformans = assay: Antifungal activity against Cryptococcus neoformans clinical isolate after 24 to 48 hrs by standard broth microdilution method; type: functional
Aspergillus fumigatus = assay: Antifungal activity against Aspergillus fumigatus clinical isolate after 72 to 96 hrs by standard broth microdilution method; type: functional
[4] = test system: Trichophyton mentagrophytes; assay: Antifungal activity against Trichophyton mentagrophytes clinical isolate after 72 to 96 hrs by standard broth microdilution method; type: functional
Sporothrix schenckii = assay: Antifungal activity against Sporothrix schenckii clinical isolate after 72 to 96 hrs by standard broth microdilution method; type: functional
Staphylococcus aureus = assay: Antimicrobial activity against Staphylococcus aureus ATCC 25923 after 24 hrs by standard broth microdilution method; type: functional; settings: ATCC 25923, 24 h

SMILES	MIC (Candida parapsilosis) [µg/mL]	MIC (Escherichia coli) [µg/mL]	IC50 (Plasmodium falciparum [1]) [µM]	IC50 (Plasmodium falciparum [2]) [µM]	MIC (Candida albicans) [µg/mL]	MIC (Pseudomonas aeruginosa) [µg/mL]	MIC (Klebsiella pneumoniae) [µg/mL]	selectivity ratio [3]	MIC (Cryptococcus neoformans) [µg/mL]	MIC (Aspergillus fumigatus) [µg/mL]	MIC [4] [µg/mL]	MIC (Sporothrix schenckii) [µg/mL]	MIC (Staphylococcus aureus) [µg/mL]
COc1ccc(Oc2ccc(N/C(=N/c3ccc(Cl)cc3)NCCCNc3ccnc4cc(Cl)ccc34)cc2)cc1	25 (≈ 42.6 µM)	12.5 (≈ 21.3 µM)	> 0.8	0.204	50 (≈ 85.2 µM)	> 50	50 (≈ 85.2 µM)	82.1	50 (≈ 85.2 µM)	50 (≈ 85.2 µM)	25 (≈ 42.6 µM)	25 (≈ 42.6 µM)	12.5 (≈ 21.3 µM)
COc1ccc(Oc2ccc(N/C(=N/c3ccccc3)NCCCNc3ccnc4cc(Cl)ccc34)cc2)cc1	12.5 (≈ 22.6 µM)	6.25 (≈ 11.3 µM)	0.68	0.0366	25 (≈ 45.3 µM)	> 50	12.5 (≈ 22.6 µM)	97.8	25 (≈ 45.3 µM)	25 (≈ 45.3 µM)	12.5 (≈ 22.6 µM)	12.5 (≈ 22.6 µM)	6.25 (≈ 11.3 µM)
Clc1ccc(Cl)c(Oc2ccc(N/C(=N/c3ccccc3)NCCNc3ccnc4cc(Cl)ccc34)cc2)c1	3.12 (≈ 5.41 µM)	6.25 (≈ 10.8 µM)	> 0.866	0.0395	3.12 (≈ 5.41 µM)	> 50	> 50	109	6.25 (≈ 10.8 µM)	12.5 (≈ 21.7 µM)	6.25 (≈ 10.8 µM)	3.12 (≈ 5.41 µM)	12.5 (≈ 21.7 µM)
COC(=O)/C(C)=C/c1ccc(Oc2ccc(N/C(=N/c3ccc(Cl)cc3)NCCCNc3ccnc4cc(Cl)ccc34)cc2)cc1	12.5 (≈ 19.1 µM)	12.5 (≈ 19.1 µM)	0.198	0.0385	12.5 (≈ 19.1 µM)	> 50	50 (≈ 76.4 µM)	100	12.5 (≈ 19.1 µM)	50 (≈ 76.4 µM)	12.5 (≈ 19.1 µM)	6.25 (≈ 9.55 µM)	12.5 (≈ 19.1 µM)
COC(=O)/C(C)=C/c1ccc(Oc2ccc(N/C(=N/c3cccc(Cl)c3)NCCNc3ccnc4cc(Cl)ccc34)cc2)cc1	50 (≈ 78.1 µM)	12.5 (≈ 19.5 µM)	0.123	0.0489	50 (≈ 78.1 µM)	50 (≈ 78.1 µM)	12.5 (≈ 19.5 µM)	71.7	50 (≈ 78.1 µM)	> 50	25 (≈ 39 µM)	25 (≈ 39 µM)	6.25 (≈ 9.76 µM)
COC(=O)/C(C)=C/c1ccc(Oc2ccccc2N/C(=N/c2cccc(Cl)c2)NCCNc2ccnc3cc(Cl)ccc23)cc1	25 (≈ 39 µM)	50 (≈ 78.1 µM)	0.489	0.0349	25 (≈ 39 µM)	> 50	3.12 (≈ 4.87 µM)	234	25 (≈ 39 µM)	50 (≈ 78.1 µM)	25 (≈ 39 µM)	25 (≈ 39 µM)	3.12 (≈ 4.87 µM)
COC(=O)/C(C)=C/c1ccc(Oc2ccccc2N/C(=N/c2ccc(Cl)cc2)NCCCCNc2ccnc3cc(Cl)ccc23)cc1	> 50	12.5 (≈ 18.7 µM)	0.0412	0.0968	50 (≈ 74.8 µM)	> 50	> 50	102	50 (≈ 74.8 µM)	> 50	6.25 (≈ 9.35 µM)	6.25 (≈ 9.35 µM)	1.56 (≈ 2.33 µM)
COC(=O)/C(C)=C/c1ccc(Oc2ccc(N/C(=N/c3ccccc3)NCCCNc3ccnc4cc(Cl)ccc34)cc2)cc1	25 (≈ 40.3 µM)	50 (≈ 80.6 µM)	> 0.8	0.0782	6.25 (≈ 10.1 µM)	> 50	> 50	84.3	6.25 (≈ 10.1 µM)	25 (≈ 40.3 µM)	12.5 (≈ 20.2 µM)	6.25 (≈ 10.1 µM)	25 (≈ 40.3 µM)
COc1ccc(Oc2ccccc2N/C(=N/c2cccc(Cl)c2)NCCNc2ccnc3cc(Cl)ccc23)cc1	> 50	6.25 (≈ 10.9 µM)	0.201	0.0434	6.25 (≈ 10.9 µM)	> 50	12.5 (≈ 21.8 µM)	208	12.5 (≈ 21.8 µM)	12.5 (≈ 21.8 µM)	12.5 (≈ 21.8 µM)	> 50	6.25 (≈ 10.9 µM)
Clc1ccc(/N=C(\NCCCCNc2ccnc3cc(Cl)ccc23)Nc2ccc(Oc3cc(Cl)ccc3Cl)cc2)cc1	12.5 (≈ 19.5 µM)	6.25 (≈ 9.77 µM)	0.209	0.029	12.5 (≈ 19.5 µM)	> 50	12.5 (≈ 19.5 µM)	756	12.5 (≈ 19.5 µM)	25 (≈ 39.1 µM)	12.5 (≈ 19.5 µM)	6.25 (≈ 9.77 µM)	6.25 (≈ 9.77 µM)
Clc1ccc(Cl)c(Oc2ccccc2N/C(=N/c2ccccc2)NCCCCNc2ccnc3cc(Cl)ccc23)c1	> 50	25 (≈ 41.3 µM)	0.094	0.194	50 (≈ 82.6 µM)	> 50	> 50	43.5	> 50	> 50	50 (≈ 82.6 µM)	25 (≈ 41.3 µM)	12.5 (≈ 20.7 µM)
